Experimental data published in US11840495B2, “Compositions and methods related to di-substituted bicyclo[2.2.1] heptanamine-containing compounds” (The Broad Institute, Inc., priority 2020, dated 2023).
Where two headings read alike, the source gives them in different places.

Columns and labels:
[1] = test system: MUC1-fs; assay: Immunofluorescence imaging of MUC1-fs in P cells (Example 2); type: cell-based; conditions: for EC50: 48 hr incubation, MUC1-fs; for ECMax (%) / Emax: 48 hr; for ECMax (%): DMSO = 0, JQ1 (250 nM) = −100% activity; for Emax: DMSO = 0, JQ1 = −100% activity, in %
Method: (§1) P cells were seeded 24 hr prior to compound treatment at a density of 12,000 cells/well in 384 well Cell Carrier Ultra plates (6057308, Perkin Elmer), pre-coated with 0.25 mg/mL Synthemax II SC Substrate (3535, Corning). Compounds were used at 5 doses (35, 3.5, 0.35, 0.035 and 0.0035 μM) for the primary screen and 10 doses (16, 5.6, 1.8, 0.6, 0.21, 0.07, 0.02, 0.008, 0.002 and 0.0008 μM) for the following screens. The compounds, in two replicates, were transferred from compound source plates to the cell plates using the HighRes Pin Tool. DMSO was used as a negative control and JQ1 (250 nM) (a bromodomain inhibitor) was chosen as a positive control, based on earlier studies showing its potent effect on reducing total MUC1 mRNA levels (data not shown). After 48 hr incubation, cells were fixed for 20 min in 4% PFA (Electron Microscopy Sciences) in PBS, washed twice, then permeabilized (10 min) with 0.5% Triton-X100 (X100-100ML, Sigma-Aldrich) in PBS and washed once more. Cells were blocked for 10 min at RT with Blocking solution (100 mM Tris HCL pH8; 150 mM NaCL; 5 g/L Blocking Reagent [11096176001, Roche]), then incubated 90 min at RT with one of the following primary antibodies in Roche Blocking solution: 1:500, monoclonal Fab-A-VSH anti-MUC1-fs, AbD22655.2, Bio-Rad; 1:2000, monoclonal mouse anti-MUC1 (214D4), 05-652-KC, Millipore; 1:1000, monoclonal, Rabbit anti-GM130 (D6B1) XP, 12480, Cell signaling technology. The primary antibody cocktail was incubated at RT for 1.5 hr, followed by four PBS wash cycles. The secondary antibody cocktail contained four components that were all prepared at a 1:1000 dilution in the Roche blocking solution and consisted of Alexa Fluor® 488-conjugated AffiniPure F(ab′)2 Fragment Goat anti-Human IgG, 109-546-097, Jackson Immunoresearch; Alexa Fluor® 647-conjugated Goat anti-Rabbit IgG, A-21246, Thermo Fisher Scientific®; Alexa Fluor® 546 Goat anti-mouse IgG, A-21123, Thermo Fisher Scientific® and Hoechst 33342 stain (62249, Thermo Fisher Scientific®). The secondary antibody cocktail was incubated at RT for 45 min, followed by four PBS wash cycles. Finally, plates were sealed with a Plate Loc plate and stored in Liconic incubator at 10° C. until imaging. Following image analysis, three parameters were selected, i) MUC1-fs and ii) MUC1-wt total cytoplasm intensity (averaged per cell) and iii) cell number as was detected by Hoechst 33342 stained nuclei. The levels of MUC1-fs and MUC1-wt found following DMSO and JQ1 were defined as 0 and −100% activity, respectively. The values obtained for all compounds were normalized accordingly. Cell number was normalized to DMSO control.

[2] = test system: MUC1-wt; assay: Immunofluorescence imaging of MUC1-wt in P cells (Example 2); type: cell-based; conditions: for EC50: 48 hr incubation, MUC1-wt; for WT ECMax (%) / WT EMax: 48 hr; for WT ECMax (%): DMSO = 0, JQ1 (250 nM) = −100% activity; for WT EMax: DMSO = 0, JQ1 = −100% activity, in %
Method: as §1

Compound | EC50 ([1]; read-out: EC50(Spot)) [µM] | ECMax (%) [1] [%] | EC50 ([2]; read-out: WT EC50 (Cytoplasm)) [µM] | WT ECMax (%) [2] [%] | EC50 ([1]; read-out: EC50) [µM] | Emax [1] | EC50 ([2]; read-out: WT EC50) [µM] | WT EMax [2] | EC50 ([1]; hydrochloride, read-out: EC50) [µM] | EC50 ([2]; hydrochloride, read-out: WT EC50) [µM]
CC1CC[C@]2(C1)[C@H]1CC[C@H](C1)[C@H]2N.Cl (mixture of isomers) [Compound 210] | 0.12 | −62.47 | > 32 | −10.67 |  |  |  |  |  | 
CC[C@]1(C)[C@H]2CC[C@H](C2)[C@H]1N.Cl (racemic) [Compound 202-rac] | 0.05 | −76.19 | 2.11 | 125.82 |  |  |  |  |  | 
CCC1(CC)[C@H]2CC[C@H](C2)[C@H]1N.Cl (racemic) [Compound 204] | 0.01 | −85.02 | 1.01 | 190.26 |  |  |  |  |  | 
CCCC1(CCC)[C@H]2CC[C@H](C2)[C@H]1N.Cl (racemic) [Compound 205] | > 32 | −3.08 | > 32 | −12.24 |  |  |  |  |  | 
C[C@@]1(Cc2ccccc2)[C@H]2CC[C@H](C2)[C@H]1N.Cl (racemic) [Compound 207] | > 32 | −25.6 | > 32 | 5.9 |  |  |  |  |  | 
Cl.N[C@@H]1[C@@H]2CC[C@@H](C2)C12CCC2 (racemic) [Compound 208, rac-spiro[bicyclo[2.2.1]heptane-3,1′-cyclobutan]-2-endo-amine hydrochloride] | 0.13 | −65.35 | > 5.6 | ~125 |  |  |  |  |  | 
Cl.N[C@@H]1[C@@H]2CC[C@@H](C2)[C@]12CC=CCC2 (racemic) [Compound 213] | 0.02 | −86.49 | > 1.8 | ~175 |  |  |  |  |  | 
Cl.N[C@@H]1[C@@H]2CC[C@@H](C2)C12CCCCCC2 (racemic) [Compound 215] | 0.11 | −56.54 | 8.87 | 63 |  |  |  |  |  | 
C[C@]1(c2ccccc2)[C@H]2CC[C@H](C2)[C@H]1N (racemic) [Compound 218, rac-(1R,2R,3R,4S)-3-methyl-3-phenylbicyclo[2.2.1]heptan-2-amine] |  |  |  |  | 13.5 | −54.7 | > 16 | −15.4 |  | 
Cl.NCC1CCCC2(C1)C1CCC(C1)C2N (racemic) [Compound 221, rac-3′-(aminomethyl)spiro[bicyclo[2.2.1]heptane-2,1′-cyclohexan]-3-amine hydrochloride] |  |  |  |  | > 16 | 16.2 | > 16 | 15.6 |  | 
CN(C)CC1CCCC2(C1)C1CCC(C1)C2N.Cl (racemic) [Compound 223, rac-3′-((dimethylamino)methyl)spiro[bicyclo[2.2.1]heptane-2,1′-cyclohexan]-3-amine hydrochloride] |  |  |  |  | > 16 | −12 | > 16 | 25.7 |  | 
Cl.NC(=O)C1CCCC2(C1)C1CCC(C1)C2N (racemic) [Compound 224, rac-3-aminospiro[bicyclo[2.2.1]heptane-2,1′-cyclohexane]-3′-carboxamide hydrochloride] |  |  |  |  | > 16 | −17.0 | > 16 | −24.4 |  | 
COCC1CCCC2(C1)C1CCC(C1)C2N.Cl (racemic) [Compound 225-1, rac-3′-(methoxymethyl)spiro[bicyclo[2.2.1]heptane-2,1′-cyclohexan]-3-amine hydrogen chloride] |  |  |  |  | > 16 | −13.3 | > 16 | −15.8 |  | 
COCC1CCCC2(C1)C1CCC(C1)C2N.Cl (racemic) [Compound 225-2, rac-3′-(methoxymethyl)spiro[bicyclo[2.2.1]heptane-2,1′-cyclohexan]-3-amine hydrogen chloride] |  |  |  |  | 10.1 | −20.7 | > 16 | −11.1 |  | 
Cl.NC1C2CCC(C2)C12CC(O)C(O)C2 (racemic) [Compound 228, rac-3-aminospiro[bicyclo[2.2.1]heptane-2,1′-cyclopentane]-3′,4′-diol hydrochloride] |  |  |  |  | > 16 | −15.1 | > 16 | −10.2 |  | 
COC1CC2(CC1OC)C1CCC(C1)C2N.Cl (racemic) [Compound 229, rac-3′,4′-dimethoxyspiro[bicyclo[2.2.1]heptane-2,1′-cyclopentan]-3-amine hydrochloride] |  |  |  |  | 15.5 | −48.1 | > 16 | 10.3 |  | 
CC(=O)OC1CC2(CC1OC(C)=O)C1CCC(C1)C2N.Cl (racemic) [Compound 230, rac-3-aminospiro[bicyclo[2.2.1]heptane-2,1′-cyclopentane]-3′,4′-diyl diacetate hydrochloride] |  |  |  |  | > 16 | −12.8 | > 16 | −16.1 |  | 
NC1C2CCC(C2)C12CCCC2 (racemic) [Compound 232, rac-spiro[bicyclo[2.2.1]heptane-2,1′-cyclopentan]-3-amine] |  |  |  |  | 5.99 | −68.6 | > 16 | 6.6 |  | 
CC1(N)C2CCC(C2)C12CCCC2 (racemic) [Compound 233, rac-3-methylspiro[bicyclo[2.2.1]heptane-2,1′-cyclopentan]-3-amine] |  |  |  |  | 0.077 | −86.9 | > 16 | 21.8 |  | 
Cl.NC1C2CCC(C2)C12CCOCC2 (racemic) [Compound 235, rac-tetrahydrospiro[bicyclo[2.2.1]heptane-2,4′-pyran]-3-amine hydrochloride] |  |  |  |  | 1.77 | −88.6 | > 16 | −6.6 |  | 
NC1C2CCC(C2)C12CC1CC1C2 (racemic) [Compound 236, rac-spiro[bicyclo[2.2.1]heptane-2,3′-bicyclo[3.1.0]hexan]-3-amine] |  |  |  |  | 0.962 | −89.6 | > 16 | −20.3 |  | 
CC12CC3(CC1(C)C2)C1CCC(C1)C3N.Cl (racemic) [Compound 237, rac-1′,5′-dimethylspiro[bicyclo[2.2.1]heptane-2,3′-bicyclo[3.1.0]hexan]-3-amine hydrochloride] |  |  |  |  | 13.3 | −45.1 | > 16 | −10.0 |  | 
Cl.NC1C2CCC(C2)C12CC1CCC2C1 (racemic) [Compound 238, rac-2,2′-spirobi[bicyclo[2.2.1]heptan]-3-amine hydrochloride] |  |  |  |  |  | −96.4 |  | 68.9 | 0.032 | 0.74
NC1C2CCC(C2)C12CC1CCC2C1 (racemic) [Compound 238-A, rac-2,2′-spirobi[bicyclo[2.2.1]heptan]-3-amine] |  |  |  |  | 0.006 | −108.1 | 1.8 | 38.7 |  | 
Cl.N[C@@H]1[C@@H]2CC[C@@H](C2)[C@]12CCC[C@H](CO)C2 [Compound 220-P1, ((1S,2R,3R,3′S,4R)-3-aminospiro[bicyclo[2.2.1]heptane-2,1′-cyclohexan]-3′-yl)methanol hydrochloride] |  |  |  |  | > 16 | 6.0 |  |  |  | 
Cl.N[C@@H]1[C@@H]2CC[C@@H](C2)[C@]12CCC[C@@H](CO)C2 [Compound 220-P2, ((1S,2R,3R,3′R,4R)-3-aminospiro[bicyclo[2.2.1]heptane-2,1′-cyclohexan]-3′-yl)methanol hydrochloride] |  |  |  |  | > 16 | 9.4 |  |  |  | 
CC[C@@]1(Cc2ccccc2)[C@H]2CC[C@H](C2)[C@H]1N [Compound 222-P1, (1R,2R,3R,4S)-3-benzyl-3-ethylbicyclo[2.2.1]heptan-2-amine] |  |  |  |  | > 16 | −17.9 |  |  |  | 
CC[C@]1(Cc2ccccc2)[C@@H]2CC[C@@H](C2)[C@@H]1N [Compound 222-P2, (1S,2S,3S,4R)-3-benzyl-3-ethylbicyclo[2.2.1]heptan-2-amine] |  |  |  |  | > 16 | 19.0 |  |  |  | 
